Laboratory results as given in patent publication US20100247564A1, “METHODS AND COMPOSITIONS FOR THE USE OF SARGASSUM FUSIFORME FOR THE INHIBITION OF HIV-1 INFECTION” (priority 2007, published 2010).
Entries after “also recorded” stand apart in the source; their conditions may differ. Like-named read-outs stand apart in the source and are kept apart here.

What was measured:
X4-tropic NL4-3 [1] = experiment: GHOST X4/R5 cell infection with X4-tropic NL4-3, flow cytometry; assay type: cell-based, HIV-1; settings: for infected cells: 20% at 0 μM
R5-tropic 81A = experiment: GHOST X4/R5 cell infection with R5-tropic 81A, flow cytometry; assay type: cell-based, HIV-1; settings: for infected cells: 52.5% at 0 μM
BlaM-Vpr-X4-tropic NL4-3 = experiment: microbe, parasite or virus in culture; assay type: cell-based, HIV-1; settings: for virus-positive cells: 37.6% untreated
[2] = tested on: cell fusion (anti-HIV activity); experiment: Inhibition of cell fusion by individual fatty acids; assay type: cell-based; settings: Human immunodeficiency virus 1, read-out: percentage of inhibition of cell fusion
Method: Anti-HIV activity of the individual fatty acids was tested at four different concentrations. The values given in Table 1 represent the percentage of inhibition of cell fusion in the presence of each fatty acid.

uninfected PBMCs = experiment: Toxicity (LD50) on uninfected PBMCs; assay type: cell-based, human
uninfected macrophages = experiment: Toxicity (LD50) on uninfected macrophages; assay type: cell-based, human
NL4-3 = experiment: MAGI cell assay with sCD4; assay type: cell-based, HIV-1; settings: increasing concentrations of PA with 200 nM sCD4
sCD4 [3] = target: T1, sCD4 (Homo sapiens, UniProt P01730); experiment: Saturation transfer difference NMR (STD-NMR) binding to sCD4; settings: NMR buffer with 20% d6-DMSO, room temperature
T1 construct: soluble CD4 (sCD4) protein; purchased Progenics Pharmaceuticals
Method: FIGS. 15A-E show in vitro binding experiments of sCD4 with PA. FIG. 15A is a homonuclear NMR spectrum of 100 μM PA in the NMR buffer (10 mM KPO4 buffer, pH 7.0, 20% d6-DMSO, and 80% D2O). […] Tryptophan fluorescence was measured using an excitation wavelength of 280 nm. An increase of PA causes a red shift of 2 nm and quenching of the tryptophan fluorescence of sCD4.
We used a one-dimensional saturation transfer difference NMR (STD-NMR) experiment to characterize the binding of PA to sCD4 in vitro. […]
To perform the STD-NMR experiment, we used commercially available sCD4 (200 μg, 4.4 nmol, Progenics Pharmaceuticals), which was exchanged into the NMR buffer (160 μl of D2O and 40 μl d6-DMSO, containing 10 mM KPO4 buffer, pH 7.0). […] The NMR data were processed and analyzed using Topspin 2.0 (Bruker).
During the STD-NMR experiment, we titrated increasing concentrations of PA into sCD4 solution, and observed PA binding to sCD4, as shown by an increase in the intensity of the ligand STD-NMR signal (FIGS. 15A and 15B). The intensity of the STD signal was quantified by calculating the difference between the intensity of one signal in the off-resonance NMR spectrum, or reference NMR spectrum (I0), and the intensity of a signal in the on-resonance NMR spectrum (Isat) for various concentrations of the ligand (FIG. 15C). […]

sCD4 [4] = target: T1, sCD4; experiment: sCD4 tryptophan fluorescence titration; assay type: binding
Method: The tryptophan fluorescence of sCD4 was used to estimate binding affinity of PA to sCD4. Measurements were performed on a Fluorolog-3 fluorescence spectrophotometer (Horiba Jobin Yvon) at 25° in a 1-ml stirred cuvette. For fluorescence titration experiments, 2 μM of sCD4 (Progenics Pharmaceuticals) dissolved in the NMR buffer was used, and a 1 mM solution of PA dissolved in the NMR buffer was added in 1 μM steps. Titrations in the absence of sCD4 were performed as a reference. Tryptophan fluorescence was measured using an excitation wavelength of 290 nm. The fluorescence emission signal was subtracted from the signal of the reference titrations, and the differences adjusted by the dilution factor were plotted against the final concentration of added PA. Curve fitting (OriginLab) was performed to find the best values for the Kd using a single-site binding isotherm approximation.

ectocervix tissue = experiment: Ectocervix tissue viability, MTT assay; assay type: cell-based, human; settings: day 10 after infection, PA-treated compared to untreated tissue
X4-tropic NL4-3 [5] = tested on: X4-tropic NL4-3
HIV-1 R5 BaL = experiment: HIV-1 BaL infection of human ectocervix tissue ex vivo, p24 ELISA; settings: for HIV-1 replication (p24): 100 μM PA; for HIV-1 infection reduced: 200 μM PA; for inhibition at 100 µM: Human immunodeficiency virus 1, BAL, in Homo sapiens, read-out: inhibition of HIV-1 infection
Method: Ectocervix tissue samples from premenopausal women were directly cultured in a non-polarized manner in 48-well plates in 300 μl/well DMEM/F 12 media for 10 days. […] Tissue was washed 3 times and returned to culture with each respective treatment for the duration of the experiment. At the indicated time points, HIV-1 replication was tested by p24 ELISA, and a two-tailed Student's t-test with p<0.05 was used to calculate statistical significance.
Ectocervix tissue samples (3-mm^3 biopsy) from premenopausal women with conditions not involving cervix were obtained in accordance with AMC approved Institutional Review Board (IRB) protocol, and were processed within 1-3 hours after surgery. Tissue was cultured in a non-polarized manner in 48-well plates in 300 μl/well DMEM/F12 media (Invitrogen) supplemented with 10% FBS for the duration of the experiment. Tissue was treated with the indicated concentrations of PA and infected with HIV-1 R5 BaL at 0.3 MOI.
Before infection, cells or cervix tissue were incubated for the indicated time in culture media with different concentrations of either PA. Cells or tissue were then washed 3 times with HBSS (Invitrogen), and infected with HIV-1 at the indicated MOI. Infected cells or tissue were washed 3 times, and returned to culture with the same concentration of each treatment for the duration of experiment. Infection was monitored in cell-free supernatants by HIV-1 p24 core antigen content accumulation by enzyme-linked immunosorbent assay (ELISA) using an HIV-1 Ag kit, as specified by the manufacturer.

[6] = tested on: R5-tropic primary isolate ADA
[7] = Human immunodeficiency virus 1, read-out: inhibition of infection (R5)
[8] = Human immunodeficiency virus 1, NL43, SUP-T1, read-out: inhibition of HIV-1 fusion
[9] = saturating concentrations of PA

**Q.** With `CCCCCCCCCCCCCCCC(=O)O` [PA, palmitic acid] as the compound, how does the infected cells (X4-tropic NL4-3 [1]; 10 μM PA) read?
**A.** 17.46%

**Q.** What about the infected cells (X4-tropic NL4-3 [1]; 20 μM PA) of the same compound?
**A.** 15.25%

**Q.** And the infected cells (X4-tropic NL4-3 [1]; 40 μM PA)?
**A.** 12.03%

**Q.** And the infected cells (X4-tropic NL4-3 [1]; 60 μM PA)?
**A.** 9.62%

**Q.** What about the infected cells (X4-tropic NL4-3 [1]; 100 μM PA) of the same compound?
**A.** 5.9%

**Q.** What about the IC50 (X4-tropic NL4-3 [1]; Human immunodeficiency virus 1, NL43, read-out: mean inhibitory concentration (IC50) for X4 inhibition) of the same compound?
**A.** ~56 µM

**Q.** And the inhibition at 10 µM (X4-tropic NL4-3 [1]; Human immunodeficiency virus 1, NL43, 10 μM PA)?
**A.** 13%

**Q.** What about the inhibition at 20 µM (X4-tropic NL4-3 [1]; Human immunodeficiency virus 1, NL43, 20 μM PA) of the same compound?
**A.** 24%

**Q.** And the inhibition at 40 µM (X4-tropic NL4-3 [1]; Human immunodeficiency virus 1, NL43, 40 μM PA)?
**A.** 40%

**Q.** What about the inhibition at 60 µM (X4-tropic NL4-3 [1]; Human immunodeficiency virus 1, NL43, 60 μM PA) of the same compound?
**A.** 52%

**Q.** What about the inhibition at 100 µM (X4-tropic NL4-3 [1]; Human immunodeficiency virus 1, NL43, 100 μM PA) of the same compound?
**A.** 70%

**Q.** What about the infected cells (R5-tropic 81A; 10 μM PA) of the same compound?
**A.** 44.77%

**Q.** And the infected cells (R5-tropic 81A; 20 μM PA)?
**A.** 36.06%

**Q.** And the infected cells (R5-tropic 81A; 40 μM PA)?
**A.** 29.88%

**Q.** And the infected cells (R5-tropic 81A; 60 μM PA)?
**A.** 22.88%

**Q.** And the infected cells (R5-tropic 81A; 100 μM PA)?
**A.** 14.45%

**Q.** And the inhibition at 10 µM (R5-tropic 81A; [7])?
**A.** 15%

**Q.** What about the inhibition at 20 µM (R5-tropic 81A; [7]) of the same compound?
**A.** 31%

**Q.** What about the inhibition at 40 µM (R5-tropic 81A; [7]) of the same compound?
**A.** 43%

**Q.** What about the inhibition at 60 µM (R5-tropic 81A; [7]) of the same compound?
**A.** 56%

**Q.** And the inhibition at 100 µM (R5-tropic 81A; [7])?
**A.** 73%

**Q.** And the IC50 (R5-tropic 81A; Human immunodeficiency virus 1, read-out: mean inhibitory concentration (IC50) for R5 inhibition)?
**A.** 51 µM

**Q.** And the virus-positive cells (BlaM-Vpr-X4-tropic NL4-3; 2 μM PA)?
**A.** 24.6%

**Q.** And the virus-positive cells (BlaM-Vpr-X4-tropic NL4-3; 4 μM PA)?
**A.** 19.7%

**Q.** And the virus-positive cells (BlaM-Vpr-X4-tropic NL4-3; 8 μM PA)?
**A.** 14.4%

**Q.** What about the inhibition at 2 µM (BlaM-Vpr-X4-tropic NL4-3; [8]) of the same compound?
**A.** 34.6%

**Q.** And the inhibition at 4 µM (BlaM-Vpr-X4-tropic NL4-3; [8])?
**A.** 47.8%

**Q.** What about the inhibition at 8 µM (BlaM-Vpr-X4-tropic NL4-3; [8]) of the same compound?
**A.** 61.6%

**Q.** And the inhibition at 0.5 µg/mL ([2]; 0.5 μg/ml)?
**A.** 33.5%

**Q.** And the inhibition at 1 µg/mL ([2]; 1 μg/ml)?
**A.** 46.1%

**Q.** And the inhibition at 2 µg/mL ([2]; 2 μg/ml)?
**A.** 64.2%

**Q.** And the inhibition at 5 µg/mL ([2]; 5 μg/ml)?
**A.** 50.6%

**Q.** What about the “mean toxicity lethal dose (LD50)” value (uninfected PBMCs) of the same compound?
**A.** ≈ 154 μM

**Q.** What about the LD50 (uninfected macrophages) of the same compound?
**A.** 400 µM

**Q.** And the “reversal of sCD4 inhibition of infection” value (NL4-3)?
**A.** completely reversed

**Q.** What about the “STD-NMR signal on titration into sCD4 solution” value (sCD4 [3]) of the same compound?
**A.** binds to sCD4 specifically

**Q.** What about the Kd (sCD4 [4]) of the same compound?
**A.** 1.5 ± 0.2 µM

**Q.** And the “quenching of the sCD4 tryptophan fluorescence” value (sCD4 [4]; [9])?
**A.** 30%

**Q.** What about the “red shift of the emission peak” value (sCD4 [4]; [9]) of the same compound?
**A.** 2 nm

**Q.** What about the “tissue toxicity (MTT viability assay)” value (ectocervix tissue) of the same compound?
**A.** not toxic to tissue; also recorded: absence of toxicity

**Q.** What about the IC50 (X4-tropic NL4-3 [5]; Human immunodeficiency virus 1, NL43, PBMC, 144 h) of the same compound?
**A.** ~0.9 µM

**Q.** What about the “inhibition of virus replication” value (X4-tropic NL4-3 [5]; up to 22 μM PA, day 6 (peak of infection)) of the same compound?
**A.** 95%

**Q.** What about the “HIV-1 replication (p24)” value (HIV-1 R5 BaL; day 4, untreated 943) of the same compound?
**A.** 604 pg p24/ml

**Q.** What about the “HIV-1 replication (p24)” value (HIV-1 R5 BaL; day 7, untreated 1421) of the same compound?
**A.** 960 pg p24/ml

**Q.** And the “HIV-1 replication (p24)” value (HIV-1 R5 BaL; day 10, untreated 785)?
**A.** 452 pg p24/ml

**Q.** And the HIV-1 infection reduced (HIV-1 R5 BaL; day 4)?
**A.** 38%

**Q.** What about the HIV-1 infection reduced (HIV-1 R5 BaL; day 10) of the same compound?
**A.** 43%

**Q.** What about the inhibition at 100 µM (HIV-1 R5 BaL; 96 h) of the same compound?
**A.** 36%

**Q.** What about the inhibition at 100 µM (HIV-1 R5 BaL; 168 h) of the same compound?
**A.** 32%

**Q.** And the inhibition at 100 µM (HIV-1 R5 BaL; 240 h)?
**A.** 42%

**Q.** And the IC50 ([6]; Human immunodeficiency virus 1, Macrophage)?
**A.** ~37 µM

**Q.** What about the “inhibition of primary isolate ADA infection” value ([6]; up to 100 μM PA, day 10 (peak of replication)) of the same compound?
**A.** 91%
